Among the data in US11236069B2, “KIF18A inhibitors” (AMGEN INC., priority 2018, dated 2022) are IC50 values, retold here.

The target in this test is Recombinant human KIF18A (1-467 His-tagged) protein (Homo sapiens (Human), UniProt Q8NI77). Description: KIF18A Enzyme Assay: microtubule-stimulated ATPase activity (ADP-Glo). The following applies: read-out: KIF18A ATPase IC50; 30 nM KIF18A, 30 μg/mL pig microtubules, ATP at Km 75 μM, ADP-Glo luminescence. On the technique in general: ADP-Glo first removes unused ATP, then detects ADP through luciferase.
Chain of Recombinant human KIF18A (1-467 His-tagged) protein (Q8NI77 1-467): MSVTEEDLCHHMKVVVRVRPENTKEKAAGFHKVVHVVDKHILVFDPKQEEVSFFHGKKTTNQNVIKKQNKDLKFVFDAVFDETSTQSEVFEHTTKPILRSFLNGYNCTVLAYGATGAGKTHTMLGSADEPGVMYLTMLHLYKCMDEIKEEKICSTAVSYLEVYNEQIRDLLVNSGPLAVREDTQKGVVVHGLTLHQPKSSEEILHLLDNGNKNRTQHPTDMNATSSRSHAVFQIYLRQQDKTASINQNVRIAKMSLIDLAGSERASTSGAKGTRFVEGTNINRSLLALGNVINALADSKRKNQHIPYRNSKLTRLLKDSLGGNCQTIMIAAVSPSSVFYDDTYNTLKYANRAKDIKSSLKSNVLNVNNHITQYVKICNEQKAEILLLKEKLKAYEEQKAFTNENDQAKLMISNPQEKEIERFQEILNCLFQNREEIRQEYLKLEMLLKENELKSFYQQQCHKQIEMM
Chain of Recombinant human KIF18A (1-467 His-tagged) protein (P02550 whole entry partner): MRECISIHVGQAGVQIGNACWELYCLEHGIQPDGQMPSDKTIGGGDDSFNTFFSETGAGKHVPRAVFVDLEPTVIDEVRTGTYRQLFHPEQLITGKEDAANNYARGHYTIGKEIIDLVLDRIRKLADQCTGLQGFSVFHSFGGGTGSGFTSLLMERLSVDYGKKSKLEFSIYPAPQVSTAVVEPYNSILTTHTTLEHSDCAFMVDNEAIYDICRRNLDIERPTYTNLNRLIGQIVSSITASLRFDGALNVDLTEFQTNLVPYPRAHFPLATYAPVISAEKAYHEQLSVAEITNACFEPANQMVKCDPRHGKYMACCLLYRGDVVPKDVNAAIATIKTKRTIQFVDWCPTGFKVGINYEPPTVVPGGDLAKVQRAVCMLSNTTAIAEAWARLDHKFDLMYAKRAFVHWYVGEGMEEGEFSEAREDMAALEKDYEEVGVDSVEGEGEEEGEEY
Chain of Recombinant human KIF18A (1-467 His-tagged) protein (P02554 whole entry partner): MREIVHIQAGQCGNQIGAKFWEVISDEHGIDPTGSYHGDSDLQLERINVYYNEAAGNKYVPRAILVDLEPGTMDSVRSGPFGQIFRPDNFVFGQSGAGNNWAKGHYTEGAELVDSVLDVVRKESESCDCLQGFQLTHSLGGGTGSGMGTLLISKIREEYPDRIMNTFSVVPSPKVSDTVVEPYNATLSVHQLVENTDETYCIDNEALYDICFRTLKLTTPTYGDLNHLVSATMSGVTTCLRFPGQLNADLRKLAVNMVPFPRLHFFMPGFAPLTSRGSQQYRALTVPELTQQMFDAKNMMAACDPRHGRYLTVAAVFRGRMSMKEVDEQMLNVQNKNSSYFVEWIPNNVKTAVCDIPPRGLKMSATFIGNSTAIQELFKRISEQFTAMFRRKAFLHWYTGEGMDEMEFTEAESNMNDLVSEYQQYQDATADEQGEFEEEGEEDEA
Description: KIF18A Enzyme Assay: Microtubule-stimulated ATPase activity assay is used to measure KIF18A enzyme activity after treatment with compound. Compounds were 2-fold serially diluted in DMSO (Sigma Inc) over 22-point concentration range. […] The assay measures ADP formed from the ATPase reaction.
Usually IC50 stands for the point on the concentration scale where inhibition reaches its midpoint. In the case of `Cc1cc(NC(=O)c2ccc(NS(=O)(=O)C3CCOC3)cc2N2CCC3(CC2)CC3)nc(N2CC(F)(F)C2)n1` (stereo in doubt) [Example 11-71, (R)-N-(2-(3,3-Difluoroazetidin-1-yl)-6-methylpyrimidin-4-yl)-2-(6-azaspiro[2.5]octan-6-yl)-4-((tetrahydrofuran)-3-sulfonamido)benzamide], the 50% inhibitory concentration (IC50) stood at 0.042 µM.

On to `O=C(Nc1ccnc(OCCC(F)(F)F)c1)c1ccc(NS(=O)(=O)CCO)cc1N1CCC2(CC1)CC2` [Example 11-59, 4-((2-Hydroxyethyl)sulfonamido)-2-(6-azaspiro[2.5]octan-6-yl)-N-(2-(3,3,3-trifluoropropoxy)pyridin-4-yl)benzamide], for which the IC50 is 0.058 µM.

As to `Cc1cc(NC(=O)c2ccc(NS(C)(=O)=O)cc2N2CCC3(CC2)CC3)nc(N2CCO[C@H](C)C2)n1` [Example 6-5, (R)-N-(6-Methyl-2-(2-methylmorpholino)pyrimidin-4-yl)-4-(methylsulfonamido)-2-(6-azaspiro[2.5]octan-6-yl)benzamide], the IC50 came out at 0.12 µM.

Regarding `Cc1cc(NC(=O)c2ccc(S(=O)(=O)NCCO)cc2N2CCC3(CC2)CC3)nc(N2CC(F)(F)C2)n1` [Example 17-5, N-(2-(3,3-Difluoroazetidin-1-yl)-6-methylpyrimidin-4-yl)-4-(N-(2-hydroxyethyl)sulfamoyl)-2-(6-azaspiro[2.5]octan-6-yl)benzamide], the IC50 came to 0.133 µM.

In the case of `Cc1cc(NC(=O)c2ccc(S(=O)(=O)NCCO)cc2N2CCC3(CC2)CC3)nc(OCCC(F)(F)F)n1` [Example 17-2, 4-(N-(2-Hydroxyethyl)sulfamoyl)-N-(6-methyl-2-(3,3,3-trifluoropropoxy)pyrimidin-4-yl)-2-(6-azaspiro[2.5]octan-6-yl)benzamide], the IC50 came out at 0.042 µM.

Turning to `Cc1cc(NC(=O)c2ccc(S(C)(=O)=O)cc2N2CCC3(CC2)CC3)nc(NC[C@H](C)O)n1` [Example 1-5, (S)-N-(2-((2-Hydroxypropyl)amino)-6-methylpyrimidin-4-yl)-4-(methylsulfonyl)-2-(6-azaspiro[2.5]octan-6-yl)benzamide], the half-inhibitory concentration (IC50) was found to be 0.451 µM.

In the case of `Cc1cc(NC(=O)c2ccc(NS(=O)(=O)[C@@H](C)CO)cc2N2CCC3(CC2)CC3)nc(N2CCO[C@H](C)C2)n1` [Example 6-23-1, 4-(((S)-2-Hydroxy-1-methylethyl)sulfonamido)-N-(6-methyl-2-((R)-2-methylmorpholino)pyrimidin-4-yl)-2-(6-azaspiro[2.5]octan-6-yl)benzamide], the IC50 was 0.039 µM.

Regarding `Cc1cc(NC(=O)c2ccc(NS(=O)(=O)CCO)cc2N2CCC3(CC2)CC3)nc(N2CCC(F)CC2)n1` [Example 11-51, N-(2-(4-Fluoropiperidin-1-yl)-6-methylpyrimidin-4-yl)-4-((2-hydroxyethyl)sulfonamido)-2-(6-azaspiro[2.5]octan-6-yl)benzamide], the 50% inhibitory concentration (IC50) stood at 0.02 µM.

In the case of `CCc1cc(NC(=O)c2ccc(NS(=O)(=O)CCO)cc2N2CCC3(CC2)CC3)nc(N2CCC(F)(F)CC2)n1` [Example 6-38, N-(2-(4,4-Difluoropiperidin-1-yl)-6-ethylpyrimidin-4-yl)-4-((2-hydroxyethyl)sulfonamido)-2-(6-azaspiro[2.5]octan-6-yl)benzamide], the IC50 was found to be 0.06 µM.

Turning to `Cc1cc(NC(=O)c2ccc(NS(=O)(=O)CCO)cc2N2CCC3(CC2)CC3)cc(OCCC(F)(F)F)n1` [Example 11-60, 4-((2-Hydroxyethyl)sulfonamido)-N-(2-methyl-6-(3,3,3-trifluoropropoxy)pyridin-4-yl)-2(6-azaspiro[2.5]octan-6-yl)benzamide], the IC50 came to 0.084 µM.

On to `Cc1cc(NC(=O)c2ccc(NS(=O)(=O)CC3(O)COC3)cc2N2CCC3(CC2)CC3)nc(N2CCC(F)(F)CC2)n1` [Example 6-19, N-(2-(4,4-Difluoropiperidin-1-yl)-6-methylpyrimidin-4-yl)-4-(((3-hydroxyoxetan-3-yl)methyl)sulfonamido)-2-(6-azaspiro[2.5]octan-6-yl)benzamide], for which the 50% inhibitory concentration (IC50) was found to be 0.039 µM.
